Data taken from US20090181986A1, “SUBSTITUTED HETEROCYCLIC COMPOUNDS” (priority 2007, published 2009).

Legend:
L-type calcium channel = L-type calcium channel activity well-plate assay (IMR-32 cells, Ca-4 dye, FlexStation); format: cell-based, human
Description: Cell Culture: IMR-32 (human neuroblastoma) cells were obtained from The American Type Culture Collection. The cells were maintained in MEM supplemented with 10% fetal bovine serum, 2 mM of L-glutamine, 100 IU/ml of penicillin, 50 μg/ml of streptomycin, 1% of sodium pyruvate, 1% of sodium bicarbonate and 1% of non-essential amino acid. […] Culture medium was changed every two days and cells were recultivated when they reached 70-80% confluent.
Assay: IMR-32 cells were seeded on a Microtest 96-well Assay Plate (BD FALCON™) at a density of 200,000 cells/well in 200 μl culture medium for overnight. The culture medium was removed, and replaced by 120 μl Ca-4 dye (MDS Analytical Technologies, Sunnyvale, Calif.) in HBSS (1× Hank's Balanced Salt solution plus 20 mM HEPES, pH 7.4) containing 2 mM probenecid. Cells were then incubated for 1 hour at 37° in incubator. Testing compounds were diluted from 5 μM-50 μM in HBSS, and 40 μl were added in cells before assay. […] The inhibition of L-type calcium channel activity by compounds was then calculated.

hERG potassium channel = hERG potassium channel (Homo sapiens, UniProt Q12809); test: hERG screening assay (PatchXpress patch clamp, CHO cells)
Chain of hERG potassium channel (Q12809 whole entry): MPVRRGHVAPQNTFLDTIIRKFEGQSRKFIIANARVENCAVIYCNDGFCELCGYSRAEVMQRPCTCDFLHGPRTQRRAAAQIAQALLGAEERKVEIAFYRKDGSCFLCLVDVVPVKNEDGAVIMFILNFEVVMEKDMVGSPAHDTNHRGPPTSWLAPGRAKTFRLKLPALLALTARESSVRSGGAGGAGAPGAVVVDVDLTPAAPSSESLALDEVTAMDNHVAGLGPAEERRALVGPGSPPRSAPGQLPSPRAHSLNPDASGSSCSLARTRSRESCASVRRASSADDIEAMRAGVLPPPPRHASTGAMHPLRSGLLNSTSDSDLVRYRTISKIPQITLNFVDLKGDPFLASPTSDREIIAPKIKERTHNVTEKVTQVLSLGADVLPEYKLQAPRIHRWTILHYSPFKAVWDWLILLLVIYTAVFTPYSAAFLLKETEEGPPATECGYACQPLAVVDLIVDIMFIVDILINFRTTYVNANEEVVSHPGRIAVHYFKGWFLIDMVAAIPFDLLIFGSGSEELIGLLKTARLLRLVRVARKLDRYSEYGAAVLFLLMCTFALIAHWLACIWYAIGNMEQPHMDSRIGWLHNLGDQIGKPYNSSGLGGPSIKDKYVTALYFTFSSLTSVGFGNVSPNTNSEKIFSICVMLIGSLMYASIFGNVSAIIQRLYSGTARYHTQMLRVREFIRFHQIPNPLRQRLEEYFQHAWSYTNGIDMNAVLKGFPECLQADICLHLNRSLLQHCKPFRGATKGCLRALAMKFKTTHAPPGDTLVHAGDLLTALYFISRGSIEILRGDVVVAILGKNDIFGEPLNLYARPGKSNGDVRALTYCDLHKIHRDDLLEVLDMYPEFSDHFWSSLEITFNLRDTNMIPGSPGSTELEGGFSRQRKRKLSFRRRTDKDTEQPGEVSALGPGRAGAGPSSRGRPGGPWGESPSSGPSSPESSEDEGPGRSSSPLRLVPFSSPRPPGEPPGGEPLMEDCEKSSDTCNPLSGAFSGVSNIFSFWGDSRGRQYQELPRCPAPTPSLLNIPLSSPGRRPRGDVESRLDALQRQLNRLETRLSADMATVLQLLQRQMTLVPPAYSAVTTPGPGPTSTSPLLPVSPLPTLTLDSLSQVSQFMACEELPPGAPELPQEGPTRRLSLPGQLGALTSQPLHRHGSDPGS
Description: Compounds were screened to test their activity in blocking the hERG potassium channel. The hERG channel is heterologously expressed in a CHO (Chinese Hamster Ovary) cell line. Cells are maintained with standard tissue culture procedures and stable channel expression is maintained with 500 μg/ml G418 in the culture medium. Cells are harvested for testing on the PatchXpress automated patch clamp with Acctumax (Innovative Cell Technologies, San Diego, Calif.) to isolate single cells.
The following solutions are used for electrophysiological recordings. The external solution contains: 2 mM CaCl2; 2 mM MgCl2; 4 mM KCl; 150 mM NaCl; 10 mM Glucose; 10 mM HEPES (pH 7.4 with 1M NaOH, osmolarity).
hERG channels are activated when the voltage is stepped to +20 mV from the −80 mV holding potential (see FIG. 3). During a 5 second step at +20 mV, the channels activate and then largely inactivate, so the currents are relatively small. Upon returning to −50 mV from +20 mV, hERG currents transiently become much larger as inactivation is rapidly removed and then the channel closes. The first step to −50 mV for 300 ms is used as a baseline for measuring the peak amplitude during the step to −50 mV after channel activation. The peak current at −50 mV is measured both under control conditions and after addition of compound.
All compounds are prepared as 10 mM DMSO stocks in glass vials. Stock solutions are mixed by vigorous vortexing and sonication for about 2 minutes at room temperature. For testing, compounds are diluted in glass vials using an intermediate dilution step in pure DMSO and then further diluted to working concentrations in external solution. Dilutions are prepared no longer than 20 minutes before use.
After achieving the whole-cell configuration, cells are monitored for 90 seconds to assess stability and washed with external solution for 66 seconds. The voltage protocol described above is then applied to the cells every 12 seconds and throughout the whole procedure. Only cells with stable recording parameters and meeting specified health criteria are allowed to enter the compound addition procedure.
External solution containing 0.1% DMSO (vehicle) is applied to the cells first to establish the control peak current amplitude. After allowing the current to stabilize for 3 to 5 minutes, 1 μM and then 10 μM test compounds are applied. Each compound concentration is added 4 times and cells are kept in test solution until the effect of the compound reaches steady state or for a maximum of 12 minutes. […] Washout in the external solution compartment is performed until the recovery of the current reaches steady state. Data are analyzed using DataXpress, Clampfit (Molecular Devices, Inc., Sunnyvale) and Origin 7 (Originlab Corp.)

SMILES | CaL Plate Assay % blk (1 μM test cmpd) (L-type calcium channel) [%] | CaL Plate Assay % blk (10 μM test cmpd) (L-type calcium channel) [%] | hERG Patch Clamp hERG % blk (1 μM test cmpd) (hERG potassium channel) [%] | hERG Patch Clamp hERG % blk (10 μM test cmpd) (hERG potassium channel) [%]
CC1=C(C(=O)OC(C)C)C(c2cccc3ccccc23)C(C(=O)OC(C)C)=C(C)N1 [PT-123, diisopropyl 2,6-dimethyl-4-(naphthalen-1-yl)-1,4-dihydropyridine-3,5-dicarboxylate] | 59 | 92 | 10 | 30.5
N#CC1=C(N)OC2=C(C(=O)CCC2)C1c1ccc(Br)cc1 (stereo not drawn) [PT-096, 2-amino-4-(4-bromophenyl)-5-oxo-5,6,7,8-tetrahydro-4H-chromene-3-carbonitrile] | 8 | 39 | 15 | 48
CC1=C(C(=O)OC(C)C)C(c2ccc(Br)s2)C(C(=O)OC(C)C)=C(C)N1 [PT-124, diisopropyl 4-(5-bromothiophen-2-yl)-2,6-dimethyl-1,4-dihydropyridine-3,5-dicarboxylate] | 10 | 52 | 11.5 | 66
CCOC(=O)C1=C(C)Nc2nc(C#N)c(C#N)n2C1c1cccc2ccccc12 (stereo not drawn) [PT-194, ethyl 2,3-dicyano-7-methyl-5-(naphthalen-1-yl)-5,8-dihydroimidazo[1,2-a]pyrimidine-6-carboxylate] | 21 | 61 | 25 | 91
CCOC(=O)C1=C(C)Nc2nnnn2C1c1ccc2ccccc2c1 (stereo not drawn) [PT-008, ethyl 5-methyl-7-(naphthalen-2-yl)-4,7-dihydrotetrazolo[1,5-a]pyrimidine-6-carboxylate] | 0 | 9 | 10 | 33.5
CC1=C(C(=O)N2CCC(c3ccc(C(=O)O)cc3)CC2)C(c2cccc3ccccc23)C2=C(CCCC2=O)N1 (stereo not drawn) [PT-173, 4-(1-(2-methyl-4-(naphthalen-1-yl)-5-oxo-1,4,5,6,7,8-hexahydroquinoline-3-carbonyl)piperidin-4-yl)benzoic acid] | 0 | 26 | 12 | 37
CC1=C(C(=O)OC2CCc3ccccc32)C(c2cccc3ccccc23)n2nnnc2N1 (stereo not drawn) [PT-062, 2,3-dihydro-1H-inden-1-yl 5-methyl-7-(naphthalen-1-yl)-4,7-dihydrotetrazolo[1,5-a]pyrimidine-6-carboxylate] | 51 | – | – | 14
CC1=C(C(=O)OCc2ccccc2)C(c2csc3ccccc23)n2nnnc2N1 (stereo not drawn) [PT-042, benzyl 7-(benzo[b]thiophen-3-yl)-5-methyl-4,7-dihydrotetrazolo[1,5-a]pyrimidine-6-carboxylate] | 0 | 16 | 11 | 52.5
CCOC(=O)C1=C(C)NC(C)=C(C(=O)OCC)C1c1cc2ccccc2o1 [PT-122, diethyl 4-(benzofuran-2-yl)-2,6-dimethyl-1,4-dihydropyridine-3,5-dicarboxylate] | 10 | 63 | 15.5 | 55
CC1=C(C(=O)OCc2ccccc2)C(c2cccc3ccccc23)n2nnnc2N1C (stereo not drawn) [PT-195, benzyl 4,5-dimethyl-7-(naphthalen-1-yl)-4,7-dihydrotetrazolo[1,5-a]pyrimidine-6-carboxylate] | 0 | 88 | 12.5 | 49
CC1=C(C(=O)OCc2ccccc2)C(c2cccs2)n2nnnc2N1 (stereo not drawn) [PT-040, benzyl 5-methyl-7-(thiophen-2-yl)-4,7-dihydrotetrazolo[1,5-a]pyrimidine-6-carboxylate] | 0 | 18 | 14.5 | 24.5
N#CC1=C(N)OC2=C(C(=O)CC(c3ccccc3)C2)C1c1cccs1 (stereo not drawn) [PT-101, 2-amino-5-oxo-7-phenyl-4-(thiophen-2-yl)-5,6,7,8-tetrahydro-4H-chromene-3-carbonitrile] | 6 | 47 | 19 | 67.5
CC1=C(C(=O)OCc2ccccc2)C(c2sc3ccccc3c2C)n2nnnc2N1 (stereo not drawn) [PT-044, benzyl 5-methyl-7-(3-methylbenzo[b]thiophen-2-yl)-4,7-dihydrotetrazolo[1,5-a]pyrimidine-6-carboxylate] | 7 | 35 | 16.5 | 40
N#CC1=C(N)OC2=C(C(=O)CC(c3ccccc3)C2)C1c1ccco1 (stereo not drawn) [PT-104, 2-amino-4-(furan-2-yl)-5-oxo-7-phenyl-5,6,7,8-tetrahydro-4H-chromene-3-carbonitrile] | 0 | 27 | 18 | 46
N#CC1=C(N)NC2=C(C(=O)CCC2)C1c1ccc(Br)cc1 (stereo not drawn) [PT-095, 2-amino-4-(4-bromophenyl)-5-oxo-1,4,5,6,7,8-hexahydroquinoline-3-carbonitrile] | 0 | 15 | 10 | 24.5
CC1=C(C(=O)O[C@@H](C)c2ccccc2)C(c2cccc3ccccc23)n2nnnc2N1 (stereo partly drawn) [PT-048, (S)-1-phenylethyl 5-methyl-7-(naphthalen-1-yl)-4,7-dihydrotetrazolo[1,5-a]pyrimidine-6-carboxylate] | 0 | 74 | – | –
CC1=C(C(=O)OC(C)C)C(c2ccc3ccccc3c2)C2=C(CCCC2=O)N1 (stereo not drawn) [PT-157, isopropyl 2-methyl-4-(naphthalen-2-yl)-5-oxo-1,4,5,6,7,8-hexahydroquinoline-3-carboxylate] | 3 | 43 | – | –
CC1=C(C(=O)OCc2ccccc2)C(c2cc3ccccc3s2)n2nnnc2N1 (stereo not drawn) [PT-043, benzyl 7-(benzo[b]thiophen-2-yl)-5-methyl-4,7-dihydrotetrazolo[1,5-a]pyrimidine-6-carboxylate] | 23 | 60 | – | –
CCOC(=O)C1=C(C)NC2=C(C(=O)CCC2)C1c1ccc(C)c2ccccc12 (stereo not drawn) [PT-135, ethyl 2-methyl-4-(4-methylnaphthalen-1-yl)-5-oxo-1,4,5,6,7,8-hexahydroquinoline-3-carboxylate] | 24 | 62 | – | –
